Source: ChEMBL document CHEMBL5137114, “Discovery of IHMT-MST1-58 as a Novel, Potent, and Selective MST1 Inhibitor for the Treatment of Type 1/2 Diabetes” (J Med Chem, 2022)
Calls of active or inactive are those of the source. The rule behind the calls is not given here.

Key:
[1] = biological target: T1, Serine/threonine-protein kinase Nek3 (Homo sapiens) (UniProt P51956); assay: Binding affinity to wild-type human full length NEK3 (M1 to R506 residues) expressed in mammalian expression system at 1 uM by Kinomescan method
T1 sequence (whole entry): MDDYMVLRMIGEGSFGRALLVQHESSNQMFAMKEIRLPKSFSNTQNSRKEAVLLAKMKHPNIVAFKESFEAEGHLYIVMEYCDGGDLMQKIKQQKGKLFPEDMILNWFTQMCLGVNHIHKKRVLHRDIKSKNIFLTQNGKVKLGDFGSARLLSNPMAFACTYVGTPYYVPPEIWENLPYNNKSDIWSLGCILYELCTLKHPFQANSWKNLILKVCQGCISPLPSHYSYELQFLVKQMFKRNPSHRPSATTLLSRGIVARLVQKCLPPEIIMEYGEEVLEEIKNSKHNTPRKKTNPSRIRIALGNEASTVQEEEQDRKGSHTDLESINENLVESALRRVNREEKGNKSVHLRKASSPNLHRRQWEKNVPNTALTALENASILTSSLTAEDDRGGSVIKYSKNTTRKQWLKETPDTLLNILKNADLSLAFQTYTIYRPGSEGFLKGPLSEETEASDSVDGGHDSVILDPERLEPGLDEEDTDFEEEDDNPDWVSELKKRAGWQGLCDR

[2] = biological target: T2, Serine/threonine-protein kinase 3 (Homo sapiens, UniProt Q13188); assay: Binding affinity to wild-type human partial length MST2 (D17 to E318 residues) expressed in bacterial expression system by Kinomescan method
T2 sequence (Q13188 whole entry): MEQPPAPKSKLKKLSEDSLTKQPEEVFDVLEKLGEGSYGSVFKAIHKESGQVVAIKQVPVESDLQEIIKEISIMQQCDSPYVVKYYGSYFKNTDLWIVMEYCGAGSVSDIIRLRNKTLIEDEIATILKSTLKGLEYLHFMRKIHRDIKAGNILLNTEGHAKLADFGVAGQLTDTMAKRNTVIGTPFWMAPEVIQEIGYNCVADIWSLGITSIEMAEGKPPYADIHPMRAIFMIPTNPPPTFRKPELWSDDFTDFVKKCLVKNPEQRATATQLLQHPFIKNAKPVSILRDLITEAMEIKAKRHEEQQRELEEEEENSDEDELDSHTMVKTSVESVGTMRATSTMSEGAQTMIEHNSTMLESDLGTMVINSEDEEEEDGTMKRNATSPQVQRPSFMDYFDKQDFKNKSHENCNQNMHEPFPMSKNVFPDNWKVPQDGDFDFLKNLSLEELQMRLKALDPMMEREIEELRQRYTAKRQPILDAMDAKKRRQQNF

[3] = biological target: T1, Serine/threonine-protein kinase Nek3 (Homo sapiens); assay: Inhibition of recombinant full length N-terminal GST -tagged human NEK3 expressed in baculovirus expression system using S2 as substrate incubated for 2 hrs by HTRF assay relative to control; details: Sf9, concentration not given here
[4] = test system: RAW264.7; assay: Inhibition of MST1 in mouse RAW264.7 cells assessed as reduction in H2O2-stimulated MOB1 phosphorylation at T35 residue preincubated for 2 hrs followed by H2O2 addition for 30 mins by Western blotting analysis; format: cell-based; details: dose 0.1-10 µM, time 2.5 hrs, DDE = dose-dependent effect
[5] = Half life in mouse at 1 mg/kg, iv measured up to 12 hrs by LC-MS/MS analysis; format: ADME, organism-based; details: in vivo
[6] = Cmax in mouse at 10 mg/kg, po measured up to 24 hrs by LC-MS/MS analysis; format: ADME, organism-based; design: dose 10 mg/kg, time < 24 hrs, route po; details: in vivo
[7] = Cmax in Sprague-Dawley rat at 1 mg/kg, iv measured up to 12 hrs by LC-MS/MS analysis; format: ADME, organism-based; design: time < 12 hrs, dose 1 mg/kg, route iv; details: in vivo
[8] = Half life in Beagle dog at 10 mg/kg, po measured up to 24 hrs by LC-MS/MS analysis; format: ADME, organism-based, Canis lupus familiaris; details: in vivo
[9] = AUC (0 to t) in mouse plasma at 50 mg/kg, po measured up to 24 hrs by LC-MS/MS analysis; format: ADME, organism-based; design: dose 50 mg/kg, time < 24 hrs, route po
[10] = Clearance in mouse plasma at 50 mg/kg, po measured up to 24 hrs by LC-MS/MS analysis; format: ADME, organism-based
[11] = test system: Mus musculus; assay: Antidiabetic activity against 8 hrs fasted multi low dose STZ-induced C57BL/6J mouse model of type 1 diabetes assessed as decrease in fasting blood glucose level at 50 mg/kg, po administered measured immediately in presence of metformin (reference value: 19.3 mmol/L); format: functional
[12] = test system: Mus musculus; assay: Antidiabetic activity against multi low dose STZ-induced C57BL/6J mouse model of type 1 diabetes assessed as food intake at 50 mg/kg, po administered for 1 to 2 days (reference value: 4.5 g/day); format: functional; details: time 1-2 day
[13] = test system: Mus musculus; assay: Antidiabetic activity in multi low dose STZ-induced C57BL/6J mouse model of type 1 diabetes assessed as reduction in HbA1c level at 50 mg/kg, po qd (reference value: 7.6 %); format: functional; design: scale not given: the % may be the effect or the level left
[14] = test system: Mus musculus; assay: Antidiabetic activity against high fat diet-STZ-induced C57BL/6J mouse model of type 2 diabetes assessed as improvement in water consumption at 50 mg/kg, po qd administered upto 106 days in presence of metformin; format: functional, organism-based; details: time <= 106.0 day
[15] = test system: Mus musculus; assay: Antidiabetic activity in high fat diet-STZ-induced C57BL/6J mouse model of type 2 diabetes assessed as reduction in HbA1c level at 250 mg/kg, po qd administered in presence of metformin (reference value: 8.6 %); format: functional; design: scale not given: the % may be the effect or the level left
[16] = test system: INS1; assay: Protection against IL-1beta-induced cell damage in rat INS1 cells assessed as increase in cell survival at 0.03 to 0.3 uM incubated for 48 hrs by Cell Titer-Glo assay; format: functional, cell-based; details: dose 0.03-0.3 µM
[17] = test system: RIN-m5F; assay: Protection against TNF-alpha-induced cell damage in rat RIN-m5F cells assessed as increase in cell survival at 0.03 to 0.3 uM incubated for 48 hrs by Cell Titer-Glo assay; format: functional, cell-based; details: dose 0.03-0.3 µM
[18] = test system: Serine/threonine-protein kinase 4 (Rattus norvegicus); assay: Inhibition of TNF-alpha-stimulated MST1 phosphorylation in rat RIN-m5F cells incubated for 12 hrs by Western blotting analysis; details: dose 0.1-10 µM, DDE = dose-dependent effect
[19] = test system: Serine/threonine-protein kinase 4 (Rattus norvegicus); assay: Inhibition of INF-gamma-stimulated MST1 phosphorylation in rat RIN-m5F cells incubated for 12 hrs by Western blotting analysis; details: dose 0.1-10 µM, DDE = dose-dependent effect
[20] = test system: Serine/threonine-protein kinase 4 (Rattus norvegicus); assay: Inhibition of IL-1beta-stimulated MST1 in rat INS1 cells assessed as reduction in MOB1 autophosphorylation incubated for 12 hrs by Western blotting analysis; details: dose 0.1-10 µM, DDE = dose-dependent effect
[21] = test system: Serine/threonine-protein kinase 4 (Rattus norvegicus); assay: Inhibition of TNF-alpha-stimulated MST1 in rat RIN-m5F cells assessed as reduction in MOB1 autophosphorylation incubated for 12 hrs by Western blotting analysis; details: dose 0.1-10 µM, DDE = dose-dependent effect
[22] = test system: Serine/threonine-protein kinase 4 (Rattus norvegicus); assay: Inhibition of INF-gamma-stimulated MST1 in rat RIN-m5F cells assessed as reduction in MOB1 autophosphorylation incubated for 12 hrs by Western blotting analysis; details: dose 0.1-10 µM, DDE = dose-dependent effect

- Activity [1]: Active
- Kd [2]: 2700 nM
- inhibition [3]: 0.85%
- half-life [5]: 1.7 h
- Cmax [6]: 1920 ng/mL
- Cmax [7]: 944 ng/mL
- half-life [8]: 5.79 h
- AUC(0-t) at 24 h [9]: 13600 ng·h/mL
- CL/F [10]: 62.2 mL/min/kg
- inhibition [18]: Dde
- inhibition [19]: Dde
- inhibition [20]: Dde
- inhibition [21]: Dde
- inhibition [22]: Dde
Structure (SMILES): Cc1ccccc1C1C(=O)N(C)c2cnc(Nc3ccc(S(N)(=O)=O)cc3)nc2N1C (configuration not stated)
- inhibition [4]: Dde
- Activity [11]: 19.3 mmol/L
- Activity [12]: 4.5 g/day
- Activity [13]: 6.7%
- Activity [14]: Active
- Activity [15]: 5.9%
- Activity [16]: Active
- Activity [17]: Active
